Our source for the IC50 values is patent US20240409585A1, “MACROCYCLIC IMMUNOMODULATORS” (priority 2021, published 2024).

The structures appear in SMILES notation. Numbered stars: 1 amine (or outer) side, 2 acyl side, 3 side chain; on linkers, the order of the positions; unused ones are H or OH. Bridge positions count the residues as written; N and C are the ends. Square brackets hold non-standard residues; d marks the D form. Peptide text beside a SMILES is read from it. * marks the point of attachment. ξ: configuration not given here. X30 = CCOc1cccc(-c2ccc(C[C@H](N[*:1])C(=O)[*:2])cc2)c1; Ala(4-isoquinolinyl) = N[C@@H](Cc1cncc2ccccc12)C(=O)O; Phe(4-COOH) = N[C@@H](Cc1ccc(C(=O)O)cc1)C(=O)O; Bip = N[C@@H](Cc1ccc(-c2ccccc2)cc1)C(=O)O; Phe(3-CN) = N#Cc1cccc(C[C@H](N)C(=O)O)c1; Phe(4-CN) = N#Cc1ccc(C[C@H](N)C(=O)O)cc1; Phe(3-Me) = Cc1cccc(C[C@H](N)C(=O)O)c1; dBta = N[C@H](Cc1csc2ccccc12)C(=O)O; Val(3-OH) = CC(C)(O)[C@H](N)C(=O)O; 4Pal = N[C@@H](Cc1ccncc1)C(=O)O; 2Thi = N[C@@H](Cc1cccs1)C(=O)O; Cha = N[C@@H](CC1CCCCC1)C(=O)O; Cit = NC(=O)NCCC[C@H](N)C(=O)O; Ile(3ξ) = CCC(C)[C@H](N)C(=O)O; Thr(3ξ) = CC(O)[C@H](N)C(=O)O; ξIle = CC[C@H](C)C(N)C(=O)O; Carboxymethyl = O=C(O)C*; NMeA = CN[C@@H](C)C(=O)O; Orn = NCCC[C@H](N)C(=O)O; Dab = NCC[C@H](N)C(=O)O; Dap = NC[C@H](N)C(=O)O; Bn = c1ccc(C*)cc1

The target in one assay is T1, PE-labeled human PD-L1-Ig binding to Jurkat cell line over-expressing human PD-1 (Jurkat-PD-1) (Homo sapiens, UniProt Q15116).
T1 construct: expressed in transfected cells; host or cells: Jurkat
T1 sequence (Q15116 25-288): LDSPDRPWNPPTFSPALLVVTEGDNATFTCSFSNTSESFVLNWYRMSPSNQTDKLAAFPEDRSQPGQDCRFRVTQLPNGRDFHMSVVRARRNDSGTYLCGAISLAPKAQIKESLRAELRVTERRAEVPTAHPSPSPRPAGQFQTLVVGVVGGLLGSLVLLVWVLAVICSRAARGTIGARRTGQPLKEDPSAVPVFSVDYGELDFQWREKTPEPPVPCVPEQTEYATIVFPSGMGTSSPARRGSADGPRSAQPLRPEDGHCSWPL
Description: Jurkat-PD-1 Cell Binding High-Content Screening Assay (CBA): Method 1. The note with it: Jurkat HPDL1 PD1 IC50 (uM) (Method 1), Jurkat-hPD-1 cells, PE-labeled PD-L1-Ig 20 nM final.
For the molecule `CC(C)C[C@@H]1NC(=O)[C@H](Cc2c[nH]c3ccccc23)NC(=O)[C@H](CC(=O)O)NC(=O)[C@H](Cc2ccc(OCC(=O)O)cc2)NC(=O)[C@H](Cc2ccccc2)NC(=O)CSC[C@@H](C(=O)N[C@@H](C)C(N)=O)NC(=O)[C@H](CO)NC(=O)[C@H](C(C)C)NC(=O)[C@H](CC(C)C)NC(=O)[C@H](CC(N)=O)NC(=O)[C@@H](CC(C)C)NC(=O)[C@H](C)N(C)C(=O)[C@H](C(C)C)NC(=O)[C@H](Cc2ccc(OCc3ccccc3)cc2)NC1=O` [Compound 2028] ({CH2CO}-FY(Carboxymethyl)DWLY(Bn)V[NMeA][dL]NLVSCA-NH2; thioether N-14), the IC50 stood at 0.48 µM.

Staying with this assay, now noted: Jurkat-hPD-1 cells, PE-labeled PD-L1-Ig 20 nM final; read-out: Jurkat HPDL1 PD1 IC50 (uM) (Method 1).
In the case of `CC(C)C[C@@H]1NC(=O)[C@H](CCCNC(=N)N)NC(=O)[C@@H](Cc2csc3ccccc23)NC(=O)[C@H](C)N(C)C(=O)[C@H](CCCNC(=N)N)NC(=O)[C@H](Cc2ccc(-c3ccccc3)cc2)NC(=O)[C@H](C(C)C)NC(=O)[C@H](Cc2c[nH]c3ccccc23)NC(=O)[C@H](CC(=O)O)NC(=O)[C@H](Cc2ccc(O)cc2)NC(=O)[C@H](Cc2ccccc2)NC(=O)CSC[C@@H](C(=O)N[C@@H](C)C(N)=O)NC(=O)[C@H]([C@@H](C)O)NC(=O)[C@H](C(C)C)NC1=O` [Compound 1180] ({CH2CO}-FYDWV[Bip]R[NMeA][dBta]RLVTCA-NH2; thioether N-14), the IC50 worked out at 0.51 µM.
On the same count and under the same terms, then `Cc1cccc(C[C@@H]2NC(=O)[C@H](CC(=O)O)NC(=O)[C@H](Cc3ccc(C(=O)O)cc3)NC(=O)[C@H](Cc3ccncc3)NC(=O)CSC[C@@H](C(N)=O)NC(=O)[C@H](CCCN)NC(=O)[C@H](C(C)C)NC(=O)[C@H](CC3CCCCC3)NC(=O)[C@H](CCN)NC(=O)[C@@H](CC(C)C)NC(=O)[C@H](C)N(C)C(=O)[C@H](CCCNC(N)=O)NC(=O)[C@H](Cc3ccc(-c4ccccc4)cc3)NC(=O)[C@H](C(C)C)NC2=O)c1` [Compound 1897] ({CH2CO}-[4Pal][Phe(4-COOH)]D[Phe(3-Me)]V[Bip][Cit][NMeA][dL][Dab][Cha]V[Orn]C-NH2; thioether N-14), with 0.01 µM.
On the same count and under the same terms, then `CCOc1cccc(-c2ccc(C[C@@H]3NC(=O)[C@H](C(C)C)NC(=O)[C@H](Cc4c[nH]c5ccccc45)NC(=O)[C@H](CC(=O)O)NC(=O)[C@H](Cc4ccc(O)cc4)NC(=O)[C@H](CC(N)=O)NC(=O)CSC[C@@H](C(=O)N[C@@H](C)C(N)=O)NC(=O)[C@H]([C@@H](C)O)NC(=O)[C@H](C(C)C)NC(=O)[C@H](CC(C)C)NC(=O)[C@H](CCN)NC(=O)[C@@H](CC(C)C)NC(=O)[C@H](C)N(C)C(=O)[C@H](CCCNC(=N)N)NC3=O)cc2)c1` [Compound 1221] ({CH2CO}-NYDWV[X30]R[NMeA][dL][Dab]LVTCA-NH2; thioether N-14), with 0.22 µM.
Still for that read-out and setting: then `CC(C)C[C@@H]1NC(=O)[C@H](Cc2c[nH]c3ccccc23)NC(=O)[C@H](CC(=O)O)NC(=O)[C@H](Cc2ccncc2)NC(=O)[C@H](Cc2ccc(OCC(=O)O)cc2)NC(=O)CSC[C@@H](C(=O)N[C@@H](CC(N)=O)C(N)=O)NC(=O)[C@H](CO)NC(=O)[C@H](C(C)C)NC(=O)[C@H](CC2CCCCC2)NC(=O)[C@H](CCN)NC(=O)[C@@H](CC(C)C)NC(=O)[C@H](C)N(C)C(=O)[C@H](Cc2ccc(O)cc2)NC(=O)[C@H](Cc2ccc(-c3ccccc3)cc2)NC1=O` [Compound 1906] ({CH2CO}-Y(Carboxymethyl)[4Pal]DWL[Bip]Y[NMeA][dL][Dab][Cha]VSCN-NH2; thioether N-14), with 0.05 µM.
Take `CC(C)C[C@@H]1NC(=O)[C@H](CCN)NC(=O)[C@@H](CC(C)C)NC(=O)[C@H](C)N(C)C(=O)[C@H](Cc2cnc[nH]2)NC(=O)[C@H](Cc2ccc(-c3ccccc3)cc2)NC(=O)[C@H](C(C)C)NC(=O)[C@H](Cc2c[nH]c3ccccc23)NC(=O)[C@H](CC(=O)O)NC(=O)[C@H](Cc2ccc(C#N)cc2)NC(=O)[C@H](CN)NC(=O)CSC[C@@H](C(=O)N[C@@H](C)C(N)=O)NC(=O)[C@H]([C@@H](C)O)NC(=O)[C@H](C(C)C)NC1=O` [Compound 1433] ({CH2CO}-[Dap][Phe(4-CN)]DWV[Bip]H[NMeA][dL][Dab]LVTCA-NH2; thioether N-14): the IC50 was 0.16 µM.
Take `CC(C)C[C@@H]1NC(=O)[C@H](CCCNC(=N)N)NC(=O)[C@@H](CC(C)C)NC(=O)[C@H](C)N(C)C(=O)[C@H](CCCN)NC(=O)[C@H](Cc2ccc(-c3ccccc3)cc2)NC(=O)[C@H](C(C)C)NC(=O)[C@H](Cc2c[nH]c3ccccc23)NC(=O)[C@H](CC(=O)O)NC(=O)[C@H](Cc2ccc(O)cc2)NC(=O)[C@H](Cc2ccccc2)NC(=O)CSC[C@@H](C(=O)N[C@@H](C)C(N)=O)NC(=O)[C@H]([C@@H](C)O)NC(=O)[C@H](C(C)C)NC1=O` [Compound 1123] ({CH2CO}-FYDWV[Bip][Orn][NMeA][dL]RLVTCA-NH2; thioether N-14): the concentration for half-maximal inhibition (IC50) turned out to be 0.06 µM.
Still for that read-out and setting: the figure for `CC(C)C[C@@H]1NC(=O)[C@H](CCN)NC(=O)[C@@H](CC(C)C)NC(=O)[C@H](C)N(C)C(=O)[C@H](CO)NC(=O)[C@H](Cc2ccc(-c3ccccc3)cc2)NC(=O)[C@H](C(C)C)NC(=O)[C@H](Cc2c[nH]c3ccccc23)NC(=O)[C@H](CC(=O)O)NC(=O)[C@H](Cc2ccc(O)cc2)NC(=O)[C@H](CC(N)=O)NC(=O)CSC[C@@H](C(=O)N[C@@H](C)C(N)=O)NC(=O)[C@H]([C@@H](C)O)NC(=O)[C@H](C(C)C)NC1=O` [Compound 1261] ({CH2CO}-NYDWV[Bip]S[NMeA][dL][Dab]LVTCA-NH2; thioether N-14) is 0.08 µM.
Same read-out and setting: then `CC[C@H](C)C1NC(=O)[C@H](Cc2ccc(-c3ccccc3)cc2)NC(=O)[C@H](C(C)C)NC(=O)[C@H](Cc2c[nH]c3ccccc23)NC(=O)[C@H](CC(=O)O)NC(=O)[C@H](Cc2ccc(C(=O)O)cc2)NC(=O)[C@H](CC(N)=O)NC(=O)CSC[C@@H](C(=O)N[C@@H](C)C(N)=O)NC(=O)[C@H]([C@@H](C)O)NC(=O)[C@H](C(C)C)NC(=O)[C@H](CC(C)C)NC(=O)[C@H](CCN)NC(=O)[C@@H](CC(C)C)NC(=O)[C@H](C)N(C)C1=O` (stereo partly drawn) [Compound 1395] ({CH2CO}-N[Phe(4-COOH)]DWV[Bip][ξIle][NMeA][dL][Dab]LVTCA-NH2; thioether N-14), with 0.02 µM.
The same measure, in the same setting: the figure for `CC(C)C[C@@H]1NC(=O)[C@H](Cc2c[nH]c3ccccc23)NC(=O)[C@H](CC(=O)O)NC(=O)[C@H](Cc2cccs2)NC(=O)[C@H](Cc2ccccc2)NC(=O)CSC[C@@H](C(=O)N[C@@H](C)C(N)=O)NC(=O)[C@H](CO)NC(=O)[C@H](C(C)C)NC(=O)[C@H](CC(C)C)NC(=O)[C@H](CC(N)=O)NC(=O)[C@@H](C)NC(=O)[C@H](C)N(C)C(=O)[C@H](C(C)C)NC(=O)[C@H](Cc2ccc(-c3ccccc3)cc2)NC1=O` [Compound 1725] ({CH2CO}-F[2Thi]DWL[Bip]V[NMeA][dA]NLVSCA-NH2; thioether N-14) is 0.01 µM; for `CC[C@H](C)[C@@H]1NC(=O)[C@H](Cc2ccc(-c3ccccc3)cc2)NC(=O)[C@H](C(C)C)NC(=O)[C@H](Cc2c[nH]c3ccccc23)NC(=O)[C@H](CC(=O)O)NC(=O)[C@H](Cc2ccc(O)cc2)NC(=O)[C@H](Cc2ccccc2)NC(=O)CSC[C@@H](C(=O)N[C@@H](C)C(N)=O)NC(=O)[C@H]([C@@H](C)O)NC(=O)[C@H](C(C)C)NC(=O)[C@H](CC2CCCCC2)NC(=O)[C@H](CCCNC(=N)N)NC(=O)[C@@H](CC(C)C)NC(=O)[C@H](C)N(C)C1=O` [Compound 1494] ({CH2CO}-FYDWV[Bip]I[NMeA][dL]R[Cha]VTCA-NH2; thioether N-14) it is 0.05 µM; for `CC(C)C[C@@H]1NC(=O)[C@H](CCN)NC(=O)[C@@H](CC(C)C)NC(=O)[C@H](C)N(C)C(=O)[C@H](CCCNC(=N)N)NC(=O)[C@H](Cc2ccc(-c3ccccc3)cc2)NC(=O)[C@H](C(C)C)NC(=O)[C@H](Cc2c[nH]c3ccccc23)NC(=O)[C@H](CC(=O)O)NC(=O)[C@H](Cc2cccc(C#N)c2)NC(=O)[C@H](CC(N)=O)NC(=O)CSC[C@@H](C(=O)N[C@@H](C)C(N)=O)NC(=O)[C@H]([C@@H](C)O)NC(=O)[C@H](C(C)C)NC1=O` [Compound 1308] ({CH2CO}-N[Phe(3-CN)]DWV[Bip]R[NMeA][dL][Dab]LVTCA-NH2; thioether N-14) it is 0.11 µM.
With `CC(C)C[C@@H]1NC(=O)[C@H](CCN)NC(=O)[C@@H](CC(C)C)NC(=O)[C@H](C)N(C)C(=O)[C@H](CCCNC(=N)N)NC(=O)[C@H](Cc2ccc(-c3ccccc3)cc2)NC(=O)[C@H](C(C)C)NC(=O)[C@H](Cc2cncc3ccccc23)NC(=O)[C@H](CC(=O)O)NC(=O)[C@H](Cc2ccc(O)cc2)NC(=O)[C@H](Cc2ccccc2)NC(=O)CSC[C@@H](C(=O)N[C@@H](C)C(N)=O)NC(=O)[C@H]([C@@H](C)O)NC(=O)[C@H](C(C)C)NC1=O` [Compound 1200] ({CH2CO}-FYD[Ala(4-isoquinolinyl)]V[Bip]R[NMeA][dL][Dab]LVTCA-NH2; thioether N-14), the IC50 turned out to be 0.49 µM.
Consider `CCC(C)[C@@H]1NC(=O)[C@H](Cc2ccc(-c3ccccc3)cc2)NC(=O)[C@H](Cc2ccc(O)cc2)NC(=O)[C@H](Cc2cccc(C)c2)NC(=O)[C@H](CC(=O)O)NC(=O)[C@H](Cc2ccc(OCC(=O)O)cc2)NC(=O)[C@H](C(C)O)NC(=O)CSC[C@@H](C(=O)N[C@@H](CO)C(N)=O)NC(=O)[C@H](C(C)O)NC(=O)[C@H](C(C)C)NC(=O)[C@H](CC2CCCCC2)NC(=O)[C@H](CCN)NC(=O)[C@@H](CC(C)C)NC(=O)[C@H](C)N(C)C1=O` (stereo partly drawn) [Compound 2121] ({CH2CO}-[Thr(3ξ)]Y(Carboxymethyl)D[Phe(3-Me)]Y[Bip][Ile(3ξ)][NMeA][dL][Dab][Cha]V[Thr(3ξ)]CS-NH2; thioether N-14), for which the half-maximal inhibitory concentration (IC50) was found to be 0.04 µM.
Same read-out and setting: the figure for `CC(C)C[C@H]1NC(=O)[C@H](C)N(C)C(=O)[C@H](Cc2ccc(C(=O)O)cc2)NC(=O)[C@H](Cc2ccc(-c3ccccc3)cc2)NC(=O)[C@H](CCC(N)=O)NC(=O)[C@H](Cc2c[nH]c3ccccc23)NC(=O)[C@H](CC(=O)O)NC(=O)[C@H](Cc2ccc(OCC(=O)O)cc2)NC(=O)[C@H](Cc2ccc(OCC(=O)O)cc2)NC(=O)CSC[C@@H](C(=O)N[C@@H](CO)C(N)=O)NC(=O)[C@H](CCC(=O)O)NC(=O)[C@H](C(C)(C)O)NC(=O)[C@H](CC2CCCCC2)NC(=O)[C@H](CCN)NC1=O` [Compound 2198] ({CH2CO}-Y(Carboxymethyl)Y(Carboxymethyl)DWQ[Bip][Phe(4-COOH)][NMeA][dL][Dab][Cha][Val(3-OH)]ECS-NH2; thioether N-14) is 0.11 µM.

One may read the IC50 as the concentration that inhibits the measured activity by half.
